Data reported in patent US20100113550A1, “New Crystal Forms” (BIAL - PORTELA AND CA, S.A., priority 2006, published 2010).
Where two headings read alike, the source gives them in different places.

Legend:
Format in all cases: physicochemical
[1] = Approximate solubilities (solvent added until a solution forms)
From the text: Approximate solubilities of compound 1, Form A in aqueous mixtures containing high concentrations of organic solvents are given in Table 1. [table]

[2] = RH stability: storage at controlled relative humidity or drying, checked by XRPD and for deliquescence
[3] = Coulometric Karl Fischer titration for water determination
Description: Coulometric Karl Fischer (KF) analysis for water determination was performed using a Mettler Toledo DL39 Karl Fischer titrator. Samples were placed in the KF titration vessel containing approximately Hydranal—Coulomat AD and mixed for 60 seconds to ensure dissolution. The sample was then titrated by means of a generator electrode which produces iodine by electrochemical oxidation: 2I−=>I2+2e. Three replicates were obtained to ensure reproducibility. A NIST-traceable water standard (Hydranal Water Standard 10.0) was analyzed to check the operation of the coulometer. Data were collected and analyzed using LabX Pro Titration v2.10.000.

[4] = RH stability: storage at controlled relative humidity or drying, checked by XRPD and for deliquescence; settings: high relative humidities, long periods of time
From the text: Form A samples were stored at lower relative humidities of approximately 9-11, 23 and 32% RH and analyzed by XRPD and Karl-Fischer titration analysis after four weeks (Tables 30 and 31). The samples appeared to be Form A by XRPD. […] Note that the water content in the samples at 23 and 32% RH was slightly higher compared to the initial batch of Form A.
Form X samples were stored at relative humidities of approximately 43, 75 and 90% RH and analyzed by XRPD and Karl-Fischer titration analysis after five weeks (Tables 34 and 35).

In the case of `Cl.NCCc1c[nH]c(=S)n1[C@H]1COc2c(F)cc(F)cc2C1` [Amorphous, (R)-5-(2-Aminoethyl)-1-(6,8-difluorochroman-3-yl)-1,3-dihydroimidazole-2-thione hydrochloride], the solubility ([1]; 2,2,2-trifluoroethanol, 50 °C, organic solvent or mixture, 2,2,2-trifluoroethanol, 50° C., read-out: Solubility (approximate) at elevated temperature) is reported as 8 mg/mL, the “Solubility (approximate)” value ([1]; 2,2,2-trifluoroethanol, hydrochloride) is reported as 8 mg/mL and the “Solubility (approximate)” value ([1]; acetone, hydrochloride) is reported as 49 mg/mL. For the same molecule, the “Solubility (approximate)” value ([1]; acetonitrile) was less than 1 mg/mL, the “Solubility compared with the other forms (in words)” value ([1]; comparison between forms, listed as Amorphous material, hydrochloride) was “higher solubilities in most organic solvents and water compared to Forms A, B, and C” and the solubility ([1]; ethanol, 53 °C, organic solvent or mixture, ethanol, 53° C., read-out: Solubility (approximate) at elevated temperature) was 11 mg/mL. For the same molecule, the “Solubility (approximate)” value ([1]; ethanol, hydrochloride) was 10 mg/mL, the “Solubility (approximate)” value ([1]; ethyl acetate) was less than 1 mg/mL and the “Solubility (approximate)” value ([1]; iso-propanol, hydrochloride) was 16 mg/mL. For the same molecule, the “Solubility (approximate)” value ([1]; methanol, hydrochloride) was 50 mg/mL, the “Solubility (approximate)” value ([1]; methyl ethyl ketone, hydrochloride) was 64 mg/mL and the solubility ([1]; methyl iso-butyl ketone, organic solvent or mixture, methyl iso-butyl ketone, read-out: Solubility (approximate)) was less than 1 mg/mL. The “Solubility (approximate)” value ([1]; tetrahydrofuran (THF), hydrochloride) was 100 mg/mL and the “Solubility (approximate)” value ([1]; water, hydrochloride) was 36 mg/mL.
For `Cl.NCCc1c[nH]c(=S)n1[C@H]1COc2c(F)cc(F)cc2C1` [Form B, (R)-5-(2-Aminoethyl)-1-(6,8-difluorochroman-3-yl)-1,3-dihydroimidazole-2-thione hydrochloride], the “Solubility (approximate)” value ([1]; acetone:water 99:1, hydrochloride) was less than 29 mg/mL, the “Solubility (approximate)” value ([1]; acetone, hydrochloride) was 2 mg/mL and the “Solubility (approximate)” value ([1]; acetonitrile:water 95:5, hydrochloride) was less than 27 mg/mL. The “Solubility (approximate)” value ([1]; ethanol:water 99:1, hydrochloride) was less than 28 mg/mL, the “Solubility (approximate)” value ([1]; ethanol, hydrochloride) was 4 mg/mL and the “Solubility (approximate)” value ([1]; methanol, hydrochloride) was 15 mg/mL. The “Solubility by kind of solvent (in words)” value ([1]; organic solvents and aqueous mixtures, hydrochloride) was “higher solubilities in aqueous solvent mixtures compared to organic solvents”, the “Stability at relative humidity” value ([2]; 90% relative humidity) was “stable” and the Deliquescence ([2]; 90% relative humidity, after 10 days) was “no deliquescence was observed”. For the same molecule, the “RH stability, XRPD patterns” value ([2]; after 2 days, 3, 7 and 8 weeks at both 75 and 90% RH) was “did not change”, the “Form conversion upon desorption (drying)” value ([2]; drying) was “convert back to Form A” and the “Weight change” value ([2]; ~55% RH, 8 days) was 10.7 mg. For the same molecule, the “Weight change, %” value ([2]; ~55% RH, 8 days) was 9.5%, the Observations ([2]; ~55% RH, 8 days (Table 32)) was “looks dry” and the Observations ([2]; ~55% RH, 8 days (Table 33)) was “looks dry”. For the same molecule, the Observations ([2]; ~75% RH, 3 weeks (Table 32)) was “looks dry”, the Observations ([2]; ~75% RH, 3 weeks (Table 33)) was “looks dry” and the Observations ([2]; ~75% RH, 7 weeks) was “looks dry”. For the same molecule, the Observations ([2]; ~75% RH, 8 weeks (Table 32)) was “looks dry”, the Observations ([2]; ~75% RH, 8 weeks (Table 33)) was “looks dry” and the “Weight change” value ([2]; ~75% RH, 2 days) was 11.0 mg. For the same molecule, the “Weight change, %” value ([2]; ~75% RH, 2 days) was 4.5%, the Observations ([2]; ~90% RH, 3 weeks (Table 32)) was “looks dry” and the Observations ([2]; ~90% RH, 3 weeks (Table 33)) was “looks dry”. For the same molecule, the Observations ([2]; ~90% RH, 7 weeks) was “looks dry”, the Observations ([2]; ~90% RH, 8 weeks (Table 32)) was “looks dry” and the Observations ([2]; ~90% RH, 8 weeks (Table 33)) was “looks dry”. For the same molecule, the “Weight change” value ([2]; ~90% RH, 2 days) was 11.6 mg, the “Weight change, %” value ([2]; ~90% RH, 2 days) was 4.6% and the “Change in the water content on storage” value ([3]; after 2 days, 3 weeks and 8 weeks at both 75 and 90% RH) was “No significant changes”. For the same molecule, the “% water” value ([3]; ~55% RH, 8 days) was 5.34%, the Moles of water ([3]; ~55% RH, 8 days) was 1.1 mol and the “% water” value ([3]; ~75% RH, 3 weeks) was 6.02%. For the same molecule, the Moles of water ([3]; ~75% RH, 3 weeks) was 1.24 mol, the “% water” value ([3]; ~75% RH, 8 weeks) was 6.12% and the Moles of water ([3]; ~75% RH, 8 weeks) was 1.26 mol. For the same molecule, the “% water” value ([3]; ~75% RH, 2 days) was 6.23%, the Moles of water ([3]; ~75% RH, 2 days) was 1.28 mol and the “% water” value ([3]; ~90% RH, 3 weeks) was 5.99%. The Moles of water ([3]; ~90% RH, 3 weeks) was 1.23 mol, the “% water” value ([3]; ~90% RH, 8 weeks) was 6.46% and the Moles of water ([3]; ~90% RH, 8 weeks) was 1.33 mol. The “% water” value ([3]; ~90% RH, 2 days) was 6.70%, the Moles of water ([3]; ~90% RH, 2 days) was 1.39 mol and the “Stability under high relative humidities” value [4] was “remain stable”.
